{
  "source": "paper PMC6943527",
  "about": "“Are the Hydantoin-1,3,5-triazine 5-HT6R Ligands a Hope to a Find New Procognitive and Anti-Obesity Drug? Considerations Based on Primary In Vivo Assays and ADME-Tox Profile In Vitro” (Molecules, 2019)",
  "key": {"[1]": {"test_system": "hepatoma HepG2 cell line", "assay": "Hepatotoxicity assay, HepG2 cell viability", "type": "cell-based", "details": "HepG2, 0.1-100 µM, 72 h", "experimental": "The cell-based assays were used to investigate safety of the 5-HT6R ligands. […] During the same study, no effect for KMP-10 was observed. Additional safety tests with the hepatoma HepG2 cell line were performed here to estimate the compounds’ hepatotoxicity. A slight antiproliferative effect was observed only for DJ-18 at 100 µM, where the cell viability was decreased to up to ~83% of the control (Figure 9a).\nHepatotoxicity was estimated using the hepatoma HepG2 (ATCC® HB-8065^TM) cell line according to previously described protocols. The CellTiter 96® AQueous Non-Radioactive Cell Proliferation Assay was obtained from Promega (Madison, WI, USA). The compounds were investigated in quadruplicate at four concentrations (0.1–100 µM) for 72h. The antiproliferative drug DX was used as a positive control at a dose of 1 µM."}, "[2]": {"assay": "Metabolic stability and metabolic pathways in human liver microsomes", "protocol": "The pharmacokinetic parameters of compounds were estimated by using human liver microsomes (HLMs) (Sigma-Aldrich, St. Louis, MO, USA). The t1/2 values and intrinsic clearances (CLint) were calculated with IS by using the protocols and formulas proposed by Obach [38]. […] VL was used as the reference unstable drug."}, "[3]": {"test_system": "human serum albumin (HSA) and α1-acid glycoprotein (AGP)", "assay": "Plasma protein binding, TRANSIL XL PPB assay", "protocol": "(§3) The immobilized HSA and AGP used in this study was included in the commercial test TRANSIL^XL PPB (plasma protein binding) assay.\n(§4) The study was performed with use of the commercial TRANSIL^XL PPB Assay (Sovicell, Leipzig, Germany). The test was performed according to recommendations from the protocol provided by the manufacturer. […] Next, the plate was centrifugated at 750 g for 10 min. The supernatants were collected and analyzed by LC/MS.\n(§5) The total fraction bound was estimated by:(3) fb=1−1/1+[HSA]/KDHSA+[AGP]/KDAGP"}, "[4]": {"assay": "Plasma protein binding, TRANSIL XL PPB assay", "details": "human, immobilized HSA and AGP at 24:1 (TRANSIL XL PPB assay)", "protocol": "as §3, §4, §5"}, "[5]": {"target": "5-HT1A", "set-up": "method as in PMID 30282913", "details": "radioligand binding, average of at least two independent experiments; read-out: Ki 5-HT1A [3H]-8-OH-DPAT; cited from earlier work"}, "[6]": {"test_system": "Caco-2 cells", "assay": "Caco-2 permeability assay", "type": "in vitro ADME", "experimental": "(§1) The Caco-2 (ATCC® HTB-37^TM) cell line was purchased from American Type Culture Collection (ATCC) (Manassas, VG, USA). The cells were cultivated in Dulbecco’s Modified Eagle’s Medium (DMEM) supplemented with 10% fetal bovine serum (FBS) in a humidified atmosphere of 5% CO2. The medium was changed every two days, and the cells were subcultured at 70%–80% confluence. […] The inserts were pretreated first with 50 µL of the medium for two minutes. Next, the 200 µL of cells were seeded at […] concentration per insert in apical compartment, whereas 600 µL was added to the basolateral one. […] TEER (transepithelial electrical resistance) measurements was started from 18 days after seeding by Millicell ERS-2 Volt-Ohm Meter (Merck Millipore, Burlington, MA, USA). […] Then, the monolayer was rinsed with HBSS (Hank’s balanced salt solution) and KMP-10, and the highly permeable reference CFN was added at a 10 µM concentration with the HBSS into the apical chambers. The 600 µL of HBSS was added to the basolateral compartments. Lucifer yellow (5 µM) was also added to the apical chambers as the membrane integrity marker. The plate was placed in the orbital shaker (60 rpm) for 2 h at 37 °C. The compounds’ concentrations in apical and basolateral wells were analyzed using the UPLC-MS method with IS. To confirm the membrane integrity, the fluorescence of lucifer yellow was measured in basolateral compartment by EnSpire multiplate reader (Perkin Elmer, Waltham, MA, USA).\n(§2) The apparent permeability Papp was calculated from two experiments according to the following formula [34]:Papp= dc/dt × V/(A × C0)(1) where: • dc/dt—the change in concentration in the receiving compartment over time • V—volume of the solution in the receiving compartment (mL) • A—surface area of the membrane (cm^2) • C0—the initial concentration in the donor compartment (µM)."}, "[7]": {"assay": "Caco-2 permeability assay", "type": "in vitro ADME", "details": "human, Caco-2; 10 µM in apical chamber, 2 h, 37 °C, two experiments; read-out: Caco-2 Papp ± SD", "experimental": "as §1, §2"}, "[8]": {"set-up": "method as in PMID 30282913", "details": "\"conditional\" anxiety-like assay; cited from earlier work"}},
  "data": [
    {"smiles": "CN1CCN(c2nc(N)nc(CN3C(=O)NC(C)(c4ccc5ccccc5c4)C3=O)n2)CC1", "note": "(stereo not drawn) [KMP-10, 3-((4-amino-6-(4-methylpiperazin-1-yl)-1,3,5-triazin-2-yl)methyl)-5-methyl-5-(naphthalen-2-yl)imidazolidine-2,4-dione]", "values": [
      {"measurement": "Hepatotoxic character", "setting": "[1]", "result": "did not show any hepatotoxic character"},
      {"measurement": "Metabolic Pathway, metabolite M1", "setting": "[2]; HLMs, 120 min incubation", "result": "demethylation"},
      {"measurement": "Metabolic Pathway, metabolite M2", "setting": "[2]; HLMs, 120 min incubation", "result": "hydroxylation"},
      {"measurement": "Metabolic Pathway, metabolite M3", "setting": "[2]; HLMs, 120 min incubation", "result": "demethylation and hydroxylation"},
      {"measurement": "Metabolic Pathway, metabolite M4", "setting": "[2]; HLMs, 120 min incubation", "result": "hydroxylation and dehydrogenation"},
      {"measurement": "Intrinsic Clearance CLint", "setting": "[2]; HLMs, reactions terminated at 5, 15, 30 and 45 min", "result": 3.74, "unit": "mL/min/kg"},
      {"measurement": "t1/2, fold longer than verapamil", "setting": "[2]; HLMs, vs unstable reference verapamil", "result": "~ 8 fold"},
      {"measurement": "CLint scaled", "setting": "[2]; human, liver microsomes", "result": 3.74, "unit": "mL/min/kg"},
      {"measurement": "half-life", "setting": "[2]; human, liver microsomes, Half-Life t1/2, HLMs, reactions terminated at 5, 15, 30 and 45 min", "result": 239, "unit": "min"},
      {"measurement": "half-life", "setting": "[2]; human, liver microsomes, t1/2 in vitro, HLMs, as restated in comparison to SUVN-502", "result": "> 180", "unit": "min"},
      {"measurement": "PPB KD", "setting": "[3]; immobilized HSA and AGP 24:1, 5 µM compound", "result": 112, "unit": "µM"},
      {"measurement": "PPB KD, fold higher than warfarin", "setting": "[3]; vs warfarin", "result": "~ 10 fold"},
      {"measurement": "fraction unbound at 12 min, 5 µM", "setting": "[4]", "result": 0.155},
      {"measurement": "Ki", "setting": "[5]", "result": 14.2, "unit": "µM"},
      {"measurement": "Caco-2 permeability classification", "setting": "[6]; bands: Papp <2 low, 2-20 moderate, >20 × 10^−6 cm/s high", "result": "moderate permeability"},
      {"measurement": "Caco-2 absorption, fold weaker than caffeine", "setting": "[6]; vs caffeine", "result": 3, "unit": "fold"},
      {"measurement": "Papp at 2 h, 10 µM", "setting": "[7]", "result": "6.27 ± 0.3", "unit": "×10⁻⁶ cm/s"},
      {"measurement": "Anxiolytic-like effects in Vogel-conflict test", "setting": "[8]", "result": "confirmed"}
    ]}
  ]
}
